Experimental data from US20060069132A1, “Azolecarboxamide herbicides” (priority 2004, published 2006).

How the values were obtained:
barnyardgrass [1] = assay: Test B pre-/postemergence herbicide test; assay type: in vivo, Echinochloa crus-galli; conditions: for Barnyardgrass plant response rating: postemergence, scale 0 (no effect) to 100 (complete control)
Summary of the method: (§1)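 Seeds were planted and treated preemergence with compounds formulated in a non-phytotoxic solvent mixture containing surfactant, while plants at the 1- to 4-leaf stage (2 to 18 cm) received postemergence sprays. Flooded paddy plants were grown to the 2-leaf stage. After 13 to 15 days in a greenhouse, injury was visually rated 0–100 against untreated controls.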

Surinam grass = assay: Test B pre-/postemergence herbicide test; assay type: in vivo, Urochloa decumbens; conditions: for Surinam Grass plant response rating: postemergence, scale 0 (no effect) to 100 (complete control)
Summary of the method: (§2)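 Response was scored visually 13 to 15 days after treatment against untreated greenhouse controls, 0 meaning no effect and 100 complete control. Formulations (solvent mixture plus surfactant) went onto soil after planting, onto foliage of 1- to 4-leaf plants, and onto 2-leaf plants in a flooded paddy set including rice and barnyardgrass.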

cocklebur = assay: Test B pre-/postemergence herbicide test; assay type: in vivo, Xanthium strumarium; conditions: for Cocklebur plant response rating: postemergence, scale 0 (no effect) to 100 (complete control)
Summary of the method: as §1

corn = assay: Test B pre-/postemergence herbicide test; assay type: in vivo, Zea mays; conditions: for Corn plant response rating: postemergence, scale 0 (no effect) to 100 (complete control)
Summary of the method: as §2

large crabgrass = assay: Test B pre-/postemergence herbicide test; assay type: in vivo, Digitaria sanguinalis; conditions: for Crabgrass, Large plant response rating: postemergence, scale 0 (no effect) to 100 (complete control)
Summary of the method: as §2

giant foxtail = assay: Test B pre-/postemergence herbicide test; assay type: in vivo, Setaria faberi; conditions: for Foxtail, Giant plant response rating: postemergence, scale 0 (no effect) to 100 (complete control)
Summary of the method: as §2

lambsquarters = assay: Test B pre-/postemergence herbicide test; assay type: in vivo, Chenopodium album; conditions: for Lambsquarters plant response rating: postemergence, scale 0 (no effect) to 100 (complete control)
Summary of the method: as §2

morningglory = assay: Test B pre-/postemergence herbicide test; assay type: in vivo, Ipomoea coccinea; conditions: for Morningglory plant response rating: postemergence, visual rating, scale 0 (no effect) to 100 (complete control)
Summary of the method: as §1

pigweed = assay: Test B pre-/postemergence herbicide test; assay type: in vivo, Amaranthus retroflexus; conditions: for Pigweed plant response rating: postemergence, scale 0 (no effect) to 100 (complete control)
Summary of the method: as §2

rice [2] = assay: Test B pre-/postemergence herbicide test; assay type: in vivo, Oryza sativa; conditions: 0 = no effect, 100 = complete control, preemergence
Summary of the method: as §2

velvetleaf = assay: Test B pre-/postemergence herbicide test; assay type: in vivo, Abutilon theophrasti; conditions: for Velvetleaf plant response rating: postemergence, scale 0 (no effect) to 100 (complete control)
Summary of the method: as §2

blackgrass = assay: Test B postemergence herbicide test; assay type: in vivo, Alopecurus myosuroides; conditions: postemergence, visual rating, scale 0 (no effect) to 100 (complete control)
Summary of the method: (§3)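 Postemergence plants were sprayed with formulated test chemicals at 2 to 18 cm height (1- to 4-leaf stage); paddy species were grown to the 2-leaf stage. After 13 to 15 days in a greenhouse, injury was rated visually against untreated controls on a 0–100 scale (0 = no effect, 100 = complete control).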

wheat = assay: Test B postemergence herbicide test; assay type: in vivo, Triticum aestivum; design: key to Wheat plant response rating: 0 = no effect, 100 = complete control; conditions: postemergence, visual rating, scale 0 (no effect) to 100 (complete control)
Summary of the method: (§4)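 Scale 0–100: zero equals no visible effect, 100 complete control, judged by eye relative to controls. Timing: 13 to 15 days in greenhouse post-treatment. Growth stage at spraying: two leaves (paddy) or one to four leaves, 2–18 cm (postemergence).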

wild oat = assay: Test B postemergence herbicide test; assay type: in vivo, Avena fatua; conditions: postemergence, visual rating, scale 0 (no effect) to 100 (complete control)
Summary of the method: as §4

rice [3] = assay: Test B flooded paddy test; assay type: in vivo, Oryza sativa; conditions: 1000 g ai/ha, visual rating, scale 0 to 100 (0 no effect, 100 complete control), 13 to 15 days
Summary of the method: as §3

[4] = test system: small flower umbrella sedge; assay: Test B flooded paddy test; assay type: in vivo, Cyperus difformis; conditions: 1000 g ai/ha, visual rating, scale 0 to 100 (0 no effect, 100 complete control), 13 to 15 days
Summary of the method: as §3

ducksalad [5] = assay: Test B flooded paddy test; assay type: in vivo, Heteranthera limosa; conditions: 1000 g ai/ha, visual rating, scale 0 to 100 (0 no effect, 100 complete control), 13 to 15 days
Summary of the method: as §3

barnyardgrass [6] = assay: Test B flooded paddy test; assay type: in vivo, Echinochloa crus-galli; conditions: 1000 g ai/ha, visual rating, scale 0 to 100 (0 no effect, 100 complete control), 13 to 15 days
Summary of the method: as §3

rice [7] = assay: Test C flooded paddy test; assay type: in vivo, Oryza sativa
Summary of the method: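 Plants were grown to the 1- to 4-leaf stage (2–18 cm) and then treated postemergence, or grown to the 2-leaf stage for the flooded paddy test. They were held in a greenhouse for 12 to 14 days and then scored by eye against controls, where 0 is no effect and 100 is complete control.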

[8] = test system: smallflower umbrella sedge; assay: Test C flooded paddy test; assay type: in vivo, Cyperus difformis
ducksalad [9] = assay: Test C flooded paddy test; assay type: in vivo, Heteranthera limosa
barnyardgrass [10] = assay: Test C flooded paddy test; assay type: in vivo, Echinochloa crus-galli
Summary of the method: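 Scoring by eye, 12–14 days post-treatment, greenhouse-held plants vs. controls; 0 no effect, 100 complete control. Sprayed at 1–4 leaves (2–18 cm); paddy barnyardgrass at 2 leaves, flooded.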

[11] = 125 g ai/ha, 0 = no effect, 100 = complete control, preemergence
[12] = 500 g ai/ha, visual rating, 0 = no effect, 100 = complete control, preemergence
[13] = 62 g ai/ha, scale 0 to 100 (0 no effect, 100 complete control)
[14] = 125 g ai/ha, scale 0 to 100 (0 no effect, 100 complete control)
[15] = 250 g ai/ha, scale of 0 to 100, 0 is no effect, 100 is complete control
[16] = 500 g ai/ha, visual rating after 12 to 14 days, scale 0 to 100 (0 no effect, 100 complete control)

CCNC(=O)c1cccc(NC(=O)c2nn(C(C)(C)C)cc2Cl)c1 [Compound 219]
Barnyardgrass plant response rating (0 to 100 scale) (barnyardgrass [1]; [11]): 0
Plant response rating, Barnyardgrass (barnyardgrass [1]; [12]): 20
Barnyardgrass plant response rating (barnyardgrass [1]; 125 g ai/ha, visual rating): 0
Barnyardgrass plant response rating (barnyardgrass [1]; 500 g ai/ha, visual rating): 0
Surinam Grass plant response rating (0 to 100 scale) (Surinam grass; [11]): 0
Plant response rating, Surinam Grass (Surinam grass; [12]): 0
Surinam Grass plant response rating (Surinam grass; 125 g ai/ha, visual rating): 0
Surinam Grass plant response rating (Surinam grass; 500 g ai/ha, visual rating): 10
Cocklebur plant response rating (0 to 100 scale) (cocklebur; [11]): 0
Plant response rating, Cocklebur (cocklebur; [12]): 0
Cocklebur plant response rating (cocklebur; 125 g ai/ha, visual rating): 0
Cocklebur plant response rating (cocklebur; 500 g ai/ha, visual rating): 20
Corn plant response rating (0 to 100 scale) (corn; [11]): 0
Plant response rating, Corn (corn; [12]): 0
Corn plant response rating (corn; 125 g ai/ha, visual rating): 0
Corn plant response rating (corn; 500 g ai/ha, visual rating): 10
Crabgrass, Large plant response rating (0 to 100 scale) (large crabgrass; [11]): 0
Plant response rating, Crabgrass, Large (large crabgrass; [12]): 100
Crabgrass, Large plant response rating (large crabgrass; 125 g ai/ha, visual rating): 0
Crabgrass, Large plant response rating (large crabgrass; 500 g ai/ha, visual rating): 10
Foxtail, Giant plant response rating (0 to 100 scale) (giant foxtail; [11]): 0
Plant response rating, Foxtail, Giant (giant foxtail; [12]): 0
Foxtail, Giant plant response rating (giant foxtail; 125 g ai/ha, visual rating): 0
Foxtail, Giant plant response rating (giant foxtail; 500 g ai/ha, visual rating): 10
Lambsquarters plant response rating (0 to 100 scale) (lambsquarters; [11]): 0
Plant response rating, Lambsquarters (lambsquarters; [12]): 0
Lambsquarters plant response rating (lambsquarters; 125 g ai/ha, visual rating): 0
Lambsquarters plant response rating (lambsquarters; 500 g ai/ha, visual rating): 10
Morningglory plant response rating (0 to 100 scale) (morningglory; [11]): 0
Morningglory plant response rating (morningglory; 125 g ai/ha): 0
Morningglory plant response rating (morningglory; 500 g ai/ha): 60
Pigweed plant response rating (0 to 100 scale) (pigweed; [11]): 0
Plant response rating, Pigweed (pigweed; [12]): 80
Pigweed plant response rating (pigweed; 125 g ai/ha, visual rating): 10
Pigweed plant response rating (pigweed; 500 g ai/ha, visual rating): 20
Rice plant response rating (0 to 100 scale) (rice [2]; 125 g ai/ha): 0
Plant response rating, Rice (rice [2]; 500 g ai/ha, visual rating): 0
Velvetleaf plant response rating (0 to 100 scale) (velvetleaf; [11]): 0
Plant response rating, Velvetleaf (velvetleaf; [12]): 10
Velvetleaf plant response rating (velvetleaf; 125 g ai/ha, visual rating): 0
Velvetleaf plant response rating (velvetleaf; 500 g ai/ha, visual rating): 10
Blackgrass plant response rating (blackgrass; 125 g ai/ha): 0
Blackgrass plant response rating (blackgrass; 500 g ai/ha): 0
Wheat plant response rating (wheat; 125 g ai/ha): 0
Wheat plant response rating (wheat; 500 g ai/ha): 0
Oat, Wild plant response rating (wild oat; 125 g ai/ha): 0
Oat, Wild plant response rating (wild oat; 500 g ai/ha): 0
Rice plant response rating (rice [3]): 0
Sedge, Umbrella plant response rating [4]: 80
Ducksalad plant response rating (ducksalad [5]): 80
Barnyardgrass plant response rating (barnyardgrass [6]): 0
Rice plant response rating (rice [7]; [13]): 0
Rice plant response rating (rice [7]; [14]): 0
Rice plant response rating (rice [7]; [15]): 0
Plant response rating, Rice (rice [7]; [16]): 0
Sedge, Umbrella plant response rating [8, 13]: 0
Sedge, Umbrella plant response rating [8, 14]: 0
Sedge, Umbrella plant response rating [8, 15]: 0
Plant response rating, Sedge, Umbrella [8, 16]: 20
Ducksalad plant response rating (ducksalad [9]; [14]): 0
Ducksalad plant response rating (ducksalad [9]; [15]): 0
Plant response rating, Ducksalad (ducksalad [9]; [16]): 0
Barnyardgrass plant response rating (barnyardgrass [10]; [13]): 0
Barnyardgrass plant response rating (barnyardgrass [10]; [14]): 0
Barnyardgrass plant response rating (barnyardgrass [10]; [15]): 0
Plant response rating, Barnyardgrass (barnyardgrass [10]; [16]): 0
